Laboratory results published in ChEMBL document CHEMBL5727296, “Amino-triazolopyridine compounds and their use in treating cancer” (2019).

Target: T1, Dual specificity protein kinase TTK (Homo sapiens, UniProt P33981)
T1 sequence (P33981 whole entry): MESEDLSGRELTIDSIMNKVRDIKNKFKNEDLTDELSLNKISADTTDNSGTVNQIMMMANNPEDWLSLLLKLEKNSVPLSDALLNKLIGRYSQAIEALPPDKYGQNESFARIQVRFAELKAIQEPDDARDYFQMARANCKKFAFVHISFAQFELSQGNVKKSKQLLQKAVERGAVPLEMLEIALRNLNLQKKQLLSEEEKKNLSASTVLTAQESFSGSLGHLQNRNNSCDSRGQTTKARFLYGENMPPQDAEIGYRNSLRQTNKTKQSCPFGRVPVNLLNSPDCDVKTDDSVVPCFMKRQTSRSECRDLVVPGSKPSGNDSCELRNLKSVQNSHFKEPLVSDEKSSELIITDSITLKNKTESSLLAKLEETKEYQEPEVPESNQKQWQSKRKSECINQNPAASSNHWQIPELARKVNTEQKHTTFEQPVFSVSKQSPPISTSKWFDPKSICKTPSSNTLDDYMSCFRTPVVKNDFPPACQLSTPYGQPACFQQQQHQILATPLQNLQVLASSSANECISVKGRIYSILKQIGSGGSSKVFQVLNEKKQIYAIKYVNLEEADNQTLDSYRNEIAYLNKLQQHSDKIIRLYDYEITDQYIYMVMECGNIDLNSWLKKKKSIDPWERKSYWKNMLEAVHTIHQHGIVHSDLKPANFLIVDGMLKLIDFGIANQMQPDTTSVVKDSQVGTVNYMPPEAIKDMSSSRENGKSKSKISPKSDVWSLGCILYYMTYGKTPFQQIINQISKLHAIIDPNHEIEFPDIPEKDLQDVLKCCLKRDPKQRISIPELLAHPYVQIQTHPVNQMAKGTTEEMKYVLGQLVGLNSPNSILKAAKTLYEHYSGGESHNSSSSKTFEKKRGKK
Experiment: Enzyme Assay: The inhibitory activity of compounds against AURKA, AURKB, JAK1, JAK2 and JAK3 was determined in Z′-LYTE® assays run by ThermoFisher Scientific as part of their SelectScreen Biochemical Kinase Profiling Service. The Z′-LYTE biochemical assay format employs a fluorescence-based, coupled-enzyme format and is based on the differential sensitivity of phosphorylated and …

IC50: 501 nM
SMILES: Cc1cc2ncnn2cc1Nc1ncc2c(n1)n([C@H]1CC[C@@](C)(O)CC1)c(=O)n2C
